The target in assay [1] is T1, 3-hydroxy-3-methylglutaryl-coenzyme A reductase (Rattus norvegicus, UniProt P51639).
T1 sequence (P51639 1-887): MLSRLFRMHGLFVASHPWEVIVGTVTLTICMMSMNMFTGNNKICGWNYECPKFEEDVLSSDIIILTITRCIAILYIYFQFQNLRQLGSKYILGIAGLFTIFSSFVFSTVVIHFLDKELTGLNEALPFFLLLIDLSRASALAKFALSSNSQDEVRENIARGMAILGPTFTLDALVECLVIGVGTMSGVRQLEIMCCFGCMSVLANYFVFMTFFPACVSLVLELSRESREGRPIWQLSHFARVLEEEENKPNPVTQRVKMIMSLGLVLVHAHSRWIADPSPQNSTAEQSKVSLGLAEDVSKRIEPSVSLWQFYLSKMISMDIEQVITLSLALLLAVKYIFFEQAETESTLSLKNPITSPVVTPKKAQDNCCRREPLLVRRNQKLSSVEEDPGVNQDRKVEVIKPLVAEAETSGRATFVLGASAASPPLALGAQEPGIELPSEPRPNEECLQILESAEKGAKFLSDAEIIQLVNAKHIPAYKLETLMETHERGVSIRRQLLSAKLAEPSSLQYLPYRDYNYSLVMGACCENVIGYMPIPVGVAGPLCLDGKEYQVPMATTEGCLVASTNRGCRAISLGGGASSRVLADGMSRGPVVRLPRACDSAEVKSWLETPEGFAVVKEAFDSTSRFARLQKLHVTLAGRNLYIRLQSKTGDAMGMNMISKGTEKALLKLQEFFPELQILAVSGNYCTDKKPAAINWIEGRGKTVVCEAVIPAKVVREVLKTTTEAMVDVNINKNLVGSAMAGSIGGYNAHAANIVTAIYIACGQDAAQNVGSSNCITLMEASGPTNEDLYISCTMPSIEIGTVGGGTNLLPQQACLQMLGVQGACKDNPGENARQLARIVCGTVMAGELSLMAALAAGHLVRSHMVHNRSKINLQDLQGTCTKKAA
Conditions: from E.P. publication 0 024 348, cited from earlier work.

In assay [2] the target is T1, 3-hydroxy-3-methylglutaryl-coenzyme A reductase. The experiment in a line: Method A: in vitro enzyme inhibition (method of Knauss et al.). It is filed as biochemical.

Where two headings read alike, the source gives them in different places.

Take `O=C1CC(O)CC(CCc2c(Cl)cc(Cl)cc2OCc2ccccc2)O1` (single isomer, unassigned; (+)) [6-[2-(2,4-dichloro-6-(phenylmethoxy)phenyl)ethyl]-3,4,5,6-tetrahydro-4-hydroxy-2H-pyran-2-one]: the IC50 in assay [1] (method A, tested as the sodium salts of the corresponding dihydroxy acid forms) was 0.068 µM.

For `O=C1C[C@H](O)C[C@@H](/C=C/c2c(Cl)cc(Cl)cc2-c2ccc(F)cc2)O1` [(E)-6-[2-(3,5-dichloro-4'-fluoro[l,l'-biphenyl]-2-yl)ethenyl]-3,4,5,6-tetrahydro-4-hydroxy-2H-pyran-2-one], in assay [1] (compared with the (+) trans enantiomer of the 2,4-dichloro-6-(phenylmethoxy)phenyl compound, tested as sodium salt of the dihydroxy acid), the “inhibitory potency (relative, in words)” value is “even more potent”. As to `Cc1cc(C)c(/C=C/[C@@H]2C[C@@H](O)CC(=O)O2)c(-c2ccc(F)c(C)c2)c1` [III, (+)-(4R, 6S)-(E)-6-[2-(3,3',5-trimethyl-4'-fluoro-[1,1'-biphenyl]-2-yl)ethenyl]-3,4,5,6-tetrahydro-4-hydroxy-2H-pyran-2-one], in assay [2] (compared with compactin, test not specified), the “inhibition of cholesterol biosynthesis (in words)” value is reported as “surpassing the inhibitory activity of compactin”. The “inhibitory potency (relative, in words)” value in assay [2] (compared with the (+) trans 3,5-dichloro-4'-fluoro-biphenyl compound, tested as sodium salt of the dihydroxy acid) is “several times more potent”.

One may read the IC50 as the concentration that inhibits the measured activity by half.

Values taken from patent EP0068038A1, “(+)-(4R,6S)-(E)-6-(2-(4'-fluoro-3,3',5-trimethyl-(1,1'-biphenyl)-2-yl)ethenyl)-3,4,5,6-tetrahydro-4-hydroxy-2H-pyran-2-one, a process for preparing and a pharmaceutical composition containing the same” (Merck & Co., Inc., priority 1981, dated 1983).
